Experimental findings from patent publication US20060178307A1, “Modulation of NMDA receptor currents via orexin receptor and/or CRF receptor” (priority 2005, published 2006) are described below.

Where no end group is shown, it is not given here.

Experiment [1] has as its system locomotor activity. The experiment is described as follows: Locomotor sensitization to cocaine, i.p. OXR1 antagonist, open field. The class given is in vivo, Sprague-Dawley rats. The method, then:
To determine if orexin signaling plays a role in behavioral sensitization to cocaine, either the OXR1 antagonist SB 334867 (10 mg/kg, i.p.) or vehicle was injected 15 min prior to injecting cocaine (15 mg/kg, i.p) or saline (0.9%), and then the rats were placed in an open field chamber to measure locomotor activity for 1 hour each day for 5 days.
Therefore, to determine if expression of cocaine sensitization requires release of orexin acting at the OXR1 receptor, the OXR1 antagonist SB 334867 (10 mg/kg) was injected with cocaine (15 mg/kg) on day 6 into either cocaine-sensitized or saline-treated rats.
Male Sprague-Dawley Rats (P21-P30; Charles River, N.C.) were singly housed with food and water available ad libitum. A 12 hr light/dark cycle was used, with the lights on at 7:00 A.M. All cocaine injections and behavioral testing were performed during the light cycle for consecutive days. The four treatment groups consisted of rats given 5 daily i.p. injections of SB 334867 (10 mg/kg) 15 min preceding i.p. injection of cocaine (15 mg/kg) or saline (0.9% NaCl), or i.p. injections of vehicle (10% DMSO and 25% β-hydroxy cyclodextrin in saline) 15 min preceding i.p. injection of cocaine or saline. All animals were habituated to the photocell boxes (Med Associates, St. Albans, Vt.) for 2 hours prior to the start of the experiment. All animals were further habituated to the photocell boxes for 30 min prior to 60 min testing session. Locomotor activity was measured in 17″×17″ chambers lined with three 16-beam I/R arrays. A 50 ms scanning rate was used for measurement of beams broken. Distance traveled was measured using Open Field Activity Software (Med Associates, Inc) and analyzed for estimates of locomotion based on the movement of a given distance and resting delay (movement in a given period of time).

The test system of experiment [2] is locomotor activity. The experiment is described as follows: Locomotor sensitization to cocaine, intra-VTA OXR1 antagonist, 7-day paradigm. Type of experiment: in vivo, Sprague-Dawley rats. The method, then:
Male Sprague-Dawley rats (250 grams) were implanted with bilateral cannulae directed at the VTA (AP, −5.2; ML, ±0.5, DV −8.0). Following recovery from surgery, animals were tested in a cocaine sensitization assay similar to that used for systemic administration of the OXR1 antagonist, but with two changes: a 7-day sensitization paradigm was used, and the OXR1 antagonist SB 334867 was microinjected directly into the VTA (6 μg/hemisphere in 300 nL solution composed of 10% DMSO in water). All other methods for habituation and data collection were identical to that described above. Rats were deeply anesthetized with pentobarbital, and perfused with a 10% formaldehyde solution. Brains were cryoprotected in 25% sucrose, 40 μm coronal sections were cut on a freezing microtome, and sections were mounted, dried and coverslipped. Injection sites were located under a light microscope and recorded on atlas figures adapted from Paxinos and Watson (1997).

Experiment [3] deals with NMDA-induced current. The experiment is described as follows: Holding current change on bath-applied NMDA. The class given is cell-based, rat. Conditions: NMDA 50 μM 30 sec. The method, then:
As a final test to determine at what time point after orexin treatment NMDARs were altered, NMDA (50 μM, 30 sec) was bath-applied, and the change in holding current was recorded. There was a significant increase in NMDA-induced current 15 min after orexin A (100 nM) application (orexin A: 344±27 pA, n=7; control: 245±43, n=9, p<0.05, FIG. 7H), but not after 3-4 hours (orexin A: 305±59, n=6; p>0.05, FIG. 7I).

As to `Cc1nc2ccc(NC(=O)Nc3ccnc4cccnc34)cc2o1.Cl` [SB 334867, 1-(2-methylbenzoxazol-6-yl)-3-[1,5]naphthyridin-4-yl urea hydrochloride], the baseline locomotor activity entry in experiment [1] (10 mg/kg i.p. with saline, n=13) is “did not reduce”. Further, in experiment [1] (10 mg/kg i.p., 5 days), the “development of sensitization to cocaine” value is “significantly blocked”. In experiment [1] (10 mg/kg injected with cocaine on day 6, n=7 in each group), the “locomotor activity on day 6 (expression of cocaine sensitization)” value is “not significantly reduced”. The “distance traveled on day 5” value in experiment [1] (SB 334867 10 mg/kg i.p. 15 min prior to cocaine 15 mg/kg i.p.) is listed as 8504±2564 cm. Moreover, the “locomotor activity on day 1” value in experiment [1] (cocaine-treated rats given SB334867 10 mg/kg, n=11) came to 3579±1079 cm. In addition, the “development of locomotor sensitization to cocaine” value in experiment [2] (daily intra-VTA 6 μg/hemisphere prior to cocaine 15 mg/kg, 7 days) is reported as “abolished”. Also, in experiment [2] (intra-VTA OXR1 antagonist 6 μg/hemisphere + cocaine), the “mean locomotor distance on day 7” value is on record as 19274±4559 cm. The “expression of pre-existing cocaine sensitization” value in experiment [2] (single intra-VTA injection) is on record as “did not affect”.

Take “orexin A: neuropeptide synthesized in neurons of the LH; orexin receptor agonist selective for the OXR1 receptor (QPLPDCCRQKTCSCRLYELLHGAGNHAAGILTL; ends and bridges not checked; cysteine pairing not given here; UniProt O43612 34-66, looked up)”: the NMDA-induced current is 305±59 pA in experiment [3] (3-4 hours after orexin A, n=6) and 344±27 pA in experiment [3] (15 min after orexin A 100 nM, n=7).
